Data from PubChem BioAssay (NCI).
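GI50 marks 50% less growth. Definition used: TGI = concentration required for complete inhibition of growth.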

Tests used:
Experiment in all cases: NCI tumour cell line growth inhibition, 384-well format
[1] = system: HCT-15 colon
[2] = system: UACC-62 melanoma
[3] = system: NCI-H226 lung
[4] = system: OVCAR-4 ovarian
[5] = system: SN12C renal
[6] = system: TK-10 renal
[7] = system: OVCAR-3 ovarian
[8] = system: EKVX NSCLC
[9] = system: K-562 leukemia
[10] = system: RPMI-8226 leukemia
[11] = system: A549 NSCLC
[12] = system: 786-0 renal
[13] = system: SNB-75 CNS
[14] = system: HCC-2998 colon
[15] = system: MCF7 breast
[16] = system: SK-OV-3 ovarian
[17] = system: UACC-257 melanoma
[18] = system: HL-60(TB) leukemia
[19] = system: SK-MEL-28 melanoma
[20] = system: OVCAR-8 ovarian
[21] = system: DU-145 prostate
[22] = system: COLO 205 colon
[23] = system: SK-MEL-2 melanoma
[24] = system: MDA-MB-231 breast
[25] = system: CAKI-1 renal
[26] = system: IGROV1 ovarian
[27] = system: OVCAR-5 ovarian
[28] = system: NCI-H23 lung
[29] = system: T-47D breast
[30] = system: BT-549 breast
[31] = system: MALME-3M melanoma
[32] = system: MDA-MB-468 breast
[33] = system: NCI-H460 NSCLC
[34] = system: LOX IMVI melanoma
[35] = system: HCT-116 colon
[36] = system: KM12 colon
[37] = system: SR leukemia
[38] = system: SF-268 CNS
[39] = system: SNB-19 CNS
[40] = system: SF-539 CNS
[41] = system: HOP-62 NSCLC
[42] = system: RXF 393 renal
[43] = system: SK-MEL-5 melanoma
[44] = system: NCI-H522 lung
[45] = system: SF-295 CNS
[46] = system: HOP-92 NSCLC
[47] = system: MOLT-4 leukemia

Question: How did the GI50 [1] turn out when `CNC(=O)c1ccccc1Nc1nc(Nc2ccc3c(c2OC)CCC[C@H](N2CCN(CCO)CC2)C3)ncc1Cl` was run?
Answer: Its GI50 is 533 nM.

Question: And the TGI [1]?
Answer: Its TGI is 1730 nM.

Question: What about the GI50 [2] of the same compound?
Answer: The GI50 was 673 nM.

Question: And the TGI [2]?
Answer: The TGI was 1930 nM.

Question: And the GI50 [3]?
Answer: Its GI50 is 686 nM.

Question: What about the TGI [3] of the same compound?
Answer: The TGI was 2700 nM.

Question: And the GI50 [4]?
Answer: Its GI50 is 1080 nM.

Question: What about the TGI [4] of the same compound?
Answer: The TGI was 2790 nM.

Question: What about the GI50 [5] of the same compound?
Answer: Its GI50 is 1400 nM.

Question: And the TGI [5]?
Answer: The TGI was 4340 nM.

Question: And the GI50 [6]?
Answer: Its GI50 is 783 nM.

Question: What about the TGI [6] of the same compound?
Answer: Its TGI is 2480 nM.

Question: What about the GI50 [7] of the same compound?
Answer: Its GI50 is 1180 nM.

Question: What about the TGI [7] of the same compound?
Answer: Its TGI is 2770 nM.

Question: What about the GI50 [8] of the same compound?
Answer: The GI50 was 236 nM.

Question: And the TGI [8]?
Answer: The TGI was 1320 nM.

Question: And the GI50 [9]?
Answer: The GI50 was 1430 nM.

Question: And the TGI [9]?
Answer: Its TGI is 2820 nM.

Question: What about the GI50 [10] of the same compound?
Answer: Its GI50 is 1150 nM.

Question: What about the TGI [10] of the same compound?
Answer: The TGI was 2420 nM.

Question: What about the GI50 [11] of the same compound?
Answer: The GI50 was 1080 nM.

Question: What about the TGI [11] of the same compound?
Answer: Its TGI is 2330 nM.

Question: And the GI50 [12]?
Answer: Its GI50 is 1160 nM.

Question: And the TGI [12]?
Answer: The TGI was 2410 nM.

Question: And the GI50 [13]?
Answer: Its GI50 is 1430 nM.

Question: And the TGI [13]?
Answer: Its TGI is 3220 nM.

Question: And the GI50 [14]?
Answer: Its GI50 is 1210 nM.

Question: What about the TGI [14] of the same compound?
Answer: Its TGI is 2550 nM.

Question: What about the GI50 [15] of the same compound?
Answer: Its GI50 is 244 nM.

Question: What about the TGI [15] of the same compound?
Answer: Its TGI is 1520 nM.

Question: What about the GI50 [16] of the same compound?
Answer: The GI50 was 740 nM.

Question: And the TGI [16]?
Answer: Its TGI is 2300 nM.

Question: What about the GI50 [17] of the same compound?
Answer: The GI50 was 327 nM.

Question: And the TGI [17]?
Answer: Its TGI is 993 nM.

Question: What about the GI50 [18] of the same compound?
Answer: Its GI50 is 215 nM.

Question: And the TGI [18]?
Answer: The TGI was 551 nM.

Question: What about the GI50 [19] of the same compound?
Answer: The GI50 was 1390 nM.

Question: What about the TGI [19] of the same compound?
Answer: The TGI was 2700 nM.

Question: And the GI50 [20]?
Answer: Its GI50 is 1500 nM.

Question: And the TGI [20]?
Answer: Its TGI is 3180 nM.

Question: And the GI50 [21]?
Answer: The GI50 was 728 nM.

Question: And the TGI [21]?
Answer: Its TGI is 2600 nM.

Question: And the GI50 [22]?
Answer: Its GI50 is 283 nM.

Question: And the TGI [22]?
Answer: Its TGI is 960 nM.

Question: What about the GI50 [23] of the same compound?
Answer: Its GI50 is 304 nM.

Question: And the TGI [23]?
Answer: Its TGI is 1050 nM.

Question: What about the GI50 [24] of the same compound?
Answer: Its GI50 is 974 nM.

Question: And the TGI [24]?
Answer: The TGI was 2280 nM.

Question: What about the GI50 [25] of the same compound?
Answer: Its GI50 is 511 nM.

Question: What about the TGI [25] of the same compound?
Answer: The TGI was 1920 nM.

Question: What about the GI50 [26] of the same compound?
Answer: The GI50 was 800 nM.

Question: And the TGI [26]?
Answer: The TGI was 2760 nM.

Question: And the GI50 [27]?
Answer: Its GI50 is 925 nM.

Question: What about the TGI [27] of the same compound?
Answer: The TGI was 3480 nM.

Question: What about the GI50 [28] of the same compound?
Answer: The GI50 was 673 nM.

Question: What about the TGI [28] of the same compound?
Answer: The TGI was 2320 nM.

Question: What about the GI50 [29] of the same compound?
Answer: The GI50 was 1280 nM.

Question: And the TGI [29]?
Answer: The TGI was 2710 nM.

Question: And the GI50 [30]?
Answer: Its GI50 is 1970 nM.

Question: And the TGI [30]?
Answer: The TGI was 5200 nM.

Question: And the GI50 [31]?
Answer: Its GI50 is 414 nM.

Question: And the TGI [31]?
Answer: Its TGI is 1450 nM.

Question: What about the GI50 [32] of the same compound?
Answer: Its GI50 is 384 nM.

Question: And the TGI [32]?
Answer: Its TGI is 1660 nM.

Question: And the GI50 [33]?
Answer: The GI50 was 1140 nM.

Question: And the TGI [33]?
Answer: The TGI was 2480 nM.

Question: What about the GI50 [34] of the same compound?
Answer: The GI50 was 655 nM.

Question: What about the TGI [34] of the same compound?
Answer: The TGI was 1970 nM.

Question: And the GI50 [35]?
Answer: The GI50 was 934 nM.

Question: And the TGI [35]?
Answer: Its TGI is 2320 nM.

Question: And the GI50 [36]?
Answer: Its GI50 is 955 nM.

Question: What about the TGI [36] of the same compound?
Answer: The TGI was 2630 nM.

Question: What about the GI50 [37] of the same compound?
Answer: Its GI50 is 18.6 nM.

Question: And the TGI [37]?
Answer: The TGI was 34.7 nM.

Question: What about the GI50 [38] of the same compound?
Answer: Its GI50 is 1550 nM.

Question: What about the TGI [38] of the same compound?
Answer: Its TGI is 3020 nM.

Question: And the GI50 [39]?
Answer: The GI50 was 2200 nM.

Question: And the TGI [39]?
Answer: Its TGI is 5900 nM.

Question: What about the GI50 [40] of the same compound?
Answer: The GI50 was 1500 nM.

Question: What about the TGI [40] of the same compound?
Answer: Its TGI is 2930 nM.

Question: What about the GI50 [41] of the same compound?
Answer: Its GI50 is 1430 nM.

Question: What about the TGI [41] of the same compound?
Answer: Its TGI is 3170 nM.

Question: What about the GI50 [42] of the same compound?
Answer: The GI50 was 565 nM.

Question: And the TGI [42]?
Answer: The TGI was 1710 nM.

Question: And the GI50 [43]?
Answer: The GI50 was 879 nM.

Question: What about the TGI [43] of the same compound?
Answer: The TGI was 2150 nM.

Question: What about the GI50 [44] of the same compound?
Answer: The GI50 was 862 nM.

Question: What about the TGI [44] of the same compound?
Answer: The TGI was 2200 nM.

Question: And the GI50 [45]?
Answer: The GI50 was 1710 nM.

Question: What about the TGI [45] of the same compound?
Answer: Its TGI is 3110 nM.

Question: And the GI50 [46]?
Answer: Its GI50 is 985 nM.

Question: And the TGI [46]?
Answer: Its TGI is 2250 nM.

Question: And the GI50 [47]?
Answer: Its GI50 is 1280 nM.

Question: What about the TGI [47] of the same compound?
Answer: Its TGI is 2560 nM.
